Values quoted from earlier work in patent publication US11691145B2, “Platform and method for multi-variable screening” (Wisconsin Alumni Research Foundation, priority 2018, dated 2023).

Tested on: bacterial pathogens (infection)
Details: phase 3 clinical trial

SMILES: CO/N=C(\C(=O)N[C@@H]1C(=O)N2C(C(=O)O)=C(COC(C)=O)CS[C@H]12)c1csc(N)n1 [cefotaxime]
- patients who responded to the antibiotic therapy (patients with a "resistant" antibiotic sensitivity test result): 64%
- patients who would respond to the antibiotic therapy (patients with a "sensitive" antibiotic sensitivity test result, best case scenario): 93%
